Structures can show the parent of a compound that is named as a salt.
Target: T1, human factor Xa (Homo sapiens, UniProt P00742)
T1 construct: factor Xa, which is formed from the proenzyme factor X
Experiment: Determination of the factor Xa inhibition (fluorogenic substrate Boc-Ile-Glu-Gly-Arg-AMC)
Format: biochemical
Settings: human factor Xa 1.3 nmol/l, 15 min preincubation at 22° C., substrate 5 μmol/l, pH 7.4
Description: • a.1) Determination of the Factor Xa Inhibition
In order to determine the factor Xa inhibition of the substances listed above, a biochemical test system is set up, in which the conversion of a factor Xa substrate is used to determine the enzymatic activity of human factor Xa. Here Factor Xa cleaves aminomethylcoumarin, whose fluorescence is measured, from the peptidic substrate. The determinations are carried out in microtitre plates.
Substances to be tested, in various concentrations, are dissolved in dimethyl sulphoxide and incubated for 15 min at 22° C. with human factor Xa (1.3 nmol/l dissolved in 50 mmol/l of Tris buffer [C,C,C-tris(hydroxymethyl)aminomethane], 100 mmol/l NaCl, 0.1% BSA [bovine serum albumin], pH 7.4). The substrate (5 μmol/l of Boc-Ile-Glu-Gly-Arg-AMC from Bachem) is then added. After an incubation time of 30 min, the sample is excited at a wavelength of 360 nm, and the emission at 460 nm is measured. The measured emissions of the test batches with test substance are compared to the control batches without test substance (only dimethyl sulphoxide instead of test substance in dimethyl sulphoxide), and IC50 values are calculated from the concentration/activity relationships.

T1 sequence (P00742 235-488 limits assumed): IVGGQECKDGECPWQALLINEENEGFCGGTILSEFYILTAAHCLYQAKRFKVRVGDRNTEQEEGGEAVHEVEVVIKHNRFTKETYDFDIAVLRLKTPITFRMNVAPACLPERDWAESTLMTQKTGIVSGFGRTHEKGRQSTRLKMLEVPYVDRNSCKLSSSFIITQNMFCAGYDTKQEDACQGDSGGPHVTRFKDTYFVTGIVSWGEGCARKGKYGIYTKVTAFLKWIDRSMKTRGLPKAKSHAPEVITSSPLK
T1 sequence (P00742 41-179 partner limits assumed): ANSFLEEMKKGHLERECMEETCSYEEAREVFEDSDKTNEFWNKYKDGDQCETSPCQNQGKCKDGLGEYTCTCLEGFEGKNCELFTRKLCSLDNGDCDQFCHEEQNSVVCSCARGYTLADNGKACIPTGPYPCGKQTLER

`Cc1cc(-n2cc(CNC(=O)c3ccc(Cl)s3)c(-c3ccccc3)n2)ccc1N1CCOCC1=O` [Example 2, 5-Chloro-N-({1-[3-methyl-4-(3-oxomorpholin-4-yl)phenyl]-3-phenyl-1H-pyrazol-4-yl}methyl)-thiophene-2-carboxamide] was tested, and the IC50 was 0.7 nM.
Compound `O=C(NCc1cn(-c2ccc(N3CCOCC3=O)cc2)nc1-c1cccnc1)c1ccc(Cl)s1` [Example 3, 5-Chloro-N-({1-[4-(3-oxomorpholin-4-yl)phenyl]-3-pyridin-3-yl-1H-pyrazol-4-yl}methyl)thiophene-2-carboxamide hydrochloride] has an IC50 of 0.8 nM.
Compound `O=C(NCc1cn(-c2ccc(N3CCOCC3=O)cc2)nc1-c1ccccc1)c1ccc(Cl)s1` [Example 1, 5-Chloro-N-({1-[4-(3-oxomorpholin-4-yl)phenyl]-3-phenyl-1H-pyrazol-4-yl}methyl)thiophene-2-carboxamide] has an IC50 of 0.7 nM.
